According to paper PMC11542720, “Modelling of chromatographic and electrophoretic behaviour of imidazoline and alpha adrenergic receptors ligands under different acid-base conditions” (ADMET & DMPK, 2024):
Counter-ions that a name gives are not always drawn.

test: Capillary electrophoresis, effective electrophoretic mobility (acetone as EOF marker); format: physicochemical; settings: pH 4.4

For `Cc1nccc2c1[nH]c1ccccc12` [Harman, harmane], which “μeff4.4 (effective electrophoretic mobility)” value is on record?
The value was 28.19 10^-5 cm^2 / V s.

same assay, conditions: pH 4.4; I = 25 mmol/L, 11 kV, 25 °C, three replicates

Which µeff4.4 does the source give for `CCC1(C2=NCCN2)Cc2ccccc2O1` (centres unmarked) [Efaroxan, efaroxan hydrochloride] here?
The µeff4.4 was 24.099 ± 0.035 10^-5 cm^2 V^-1 s^-1.

Which µeff4.4 does the source give for `c1cc2c(c(NC3=NCCN3)c1)CCCC2` [Tramazoline, Tramazoline hydrochloride] here?
The µeff4.4 was 24.393 ± 0.067 10^-5 cm^2 V^-1 s^-1.

For `Cc1nccc2c1[nH]c1ccccc12` [Harman, harmane], which µeff4.4 is on record?
The µeff4.4 was 28.192 ± 0.016 10^-5 cm^2 V^-1 s^-1.

Which µeff4.4 does the source give for `Brc1c(NC2=NCCN2)ccc2nccnc12` [Brimonidine, brimonidine hydrochloride] here?
Its µeff4.4 is 23.357 ± 0.043 10^-5 cm^2 V^-1 s^-1.

With `c1ccc2c(CC3=NCCN3)cccc2c1` [Naphazoline, naphazoline hydrochloride] as the compound, how does the µeff4.4 read?
Its µeff4.4 is 25.941 ± 0.038 10^-5 cm^2 V^-1 s^-1.

Which µeff4.4 does the source give for `COc1ccc2c(c1)[nH]c1c(C)nccc12` [Harmine, harmine hydrochloride] here?
Its µeff4.4 is 26.410 ± 0.068 10^-5 cm^2 V^-1 s^-1.

same assay, conditions: pH 7.4; I = 25 mmol/L, 11 kV, 25 °C, three replicates

For `CCC1(C2=NCCN2)Cc2ccccc2O1` (centres unmarked) [Efaroxan, efaroxan hydrochloride], which µeff7.4 is on record?
Its µeff7.4 is 22.704 ± 0.075 10^-5 cm^2 V^-1 s^-1.

For `c1cc2c(c(NC3=NCCN3)c1)CCCC2` [Tramazoline, Tramazoline hydrochloride], which µeff7.4 is on record?
Its µeff7.4 is 22.988 ± 0.060 10^-5 cm^2 V^-1 s^-1.

For `Cc1nccc2c1[nH]c1ccccc12` [Harman, harmane], which µeff7.4 is on record?
Its µeff7.4 is 11.752 ± 0.034 10^-5 cm^2 V^-1 s^-1.

For `Brc1c(NC2=NCCN2)ccc2nccnc12` [Brimonidine, brimonidine hydrochloride], which µeff7.4 is on record?
Its µeff7.4 is 13.247 ± 0.200 10^-5 cm^2 V^-1 s^-1.

With `c1ccc2c(CC3=NCCN3)cccc2c1` [Naphazoline, naphazoline hydrochloride] as the compound, how does the µeff7.4 read?
The µeff7.4 was 24.180 ± 0.135 10^-5 cm^2 V^-1 s^-1.

With `COc1ccc2c(c1)[nH]c1c(C)nccc12` [Harmine, harmine hydrochloride] as the compound, how does the µeff7.4 read?
The µeff7.4 was 13.636 ± 0.051 10^-5 cm^2 V^-1 s^-1.

same assay, conditions: pH 9.1

For `Brc1c(NC2=NCCN2)ccc2nccnc12` [Brimonidine, brimonidine hydrochloride], which “μeff9.1 (effective electrophoretic mobility)” value is on record?
The value was “zero”.

same assay, conditions: pH 9.1; I = 25 mmol/L, 11 kV, 25 °C, three replicates

With `CCC1(C2=NCCN2)Cc2ccccc2O1` (centres unmarked) [Efaroxan, efaroxan hydrochloride] as the compound, how does the µeff9.1 read?
Its µeff9.1 is 16.361 ± 0.178 10^-5 cm^2 V^-1 s^-1.

Which µeff9.1 does the source give for `c1cc2c(c(NC3=NCCN3)c1)CCCC2` [Tramazoline, Tramazoline hydrochloride] here?
The µeff9.1 was 23.713 ± 0.031 10^-5 cm^2 V^-1 s^-1.

Which µeff9.1 does the source give for `Cc1nccc2c1[nH]c1ccccc12` [Harman, harmane] here?
Its µeff9.1 is 0.000 ± 0.000 10^-5 cm^2 V^-1 s^-1.

For `Brc1c(NC2=NCCN2)ccc2nccnc12` [Brimonidine, brimonidine hydrochloride], which µeff9.1 is on record?
Its µeff9.1 is 0.000 ± 0.000 10^-5 cm^2 V^-1 s^-1.

With `c1ccc2c(CC3=NCCN3)cccc2c1` [Naphazoline, naphazoline hydrochloride] as the compound, how does the µeff9.1 read?
Its µeff9.1 is 24.643 ± 0.049 10^-5 cm^2 V^-1 s^-1.

With `COc1ccc2c(c1)[nH]c1c(C)nccc12` [Harmine, harmine hydrochloride] as the compound, how does the µeff9.1 read?
Its µeff9.1 is 1.305 ± 0.124 10^-5 cm^2 V^-1 s^-1.

test: RP-HPLC retention on XTerra RP18, methanol/buffer; extrapolated retention factor log kw and slope S; format: physicochemical; settings: pH 4.4; intercept, extrapolated to 100 % buffer; methanol/buffer, 25 °C
Procedure: All measurements were performed at 25°C with a constant flow rate of 0.8 mL min^-1 and UV detection in the range of 200-280 nm. The injection volume was 20 μL. […] The retention factor k was calculated for each mobile phase composition according to Equation (1):
where tr is the retention time of the tested compound and t0 is the dead volume measured with KNO3 as a non-retentive marker. The values corresponding to 100 % of the buffered eluent (log kw) were determined by extrapolation according to Equation (2):
where log kw is the intercept, S is the slope of the regression line, and φ is the volume fraction of the organic modifier in the mobile phase.
The retention behaviour in HPLC system was monitored by calculating extrapolated retention factors log kw corresponding to pure buffer as mobile phase.

With `CCC1(C2=NCCN2)Cc2ccccc2O1` (centres unmarked) [Efaroxan, efaroxan hydrochloride] as the compound, how does the log kw read?
Its log kw is 1.31 ± 0.02.

For `c1cc2c(c(NC3=NCCN3)c1)CCCC2` [Tramazoline, Tramazoline hydrochloride], which log kw is on record?
Its log kw is 1.55 ± 0.03.

With `Cc1nccc2c1[nH]c1ccccc12` [Harman, harmane] as the compound, how does the log kw read?
The log kw was 1.72 ± 0.06.

Which log kw does the source give for `Brc1c(NC2=NCCN2)ccc2nccnc12` [Brimonidine, brimonidine hydrochloride] here?
The log kw was 0.99 ± 0.03.

Which log kw does the source give for `c1ccc2c(CC3=NCCN3)cccc2c1` [Naphazoline, naphazoline hydrochloride] here?
Its log kw is 1.52 ± 0.01.

For `COc1ccc2c(c1)[nH]c1c(C)nccc12` [Harmine, harmine hydrochloride], which log kw is on record?
The log kw was 2.15 ± 0.04.

same assay, conditions: pH 4.4; slope of log k vs methanol volume fraction

For `CCC1(C2=NCCN2)Cc2ccccc2O1` (centres unmarked) [Efaroxan, efaroxan hydrochloride], which “S (slope)” value is on record?
The value was -3.20 ± 0.04.

For `c1cc2c(c(NC3=NCCN3)c1)CCCC2` [Tramazoline, Tramazoline hydrochloride], which “S (slope)” value is on record?
Its value is -3.43 ± 0.07.

Which “S (slope)” value does the source give for `Cc1nccc2c1[nH]c1ccccc12` [Harman, harmane] here?
Its value is -3.74 ± 0.18.

With `Brc1c(NC2=NCCN2)ccc2nccnc12` [Brimonidine, brimonidine hydrochloride] as the compound, how does the “S (slope)” value read?
The value was -4.78 ± 0.21.

Which “S (slope)” value does the source give for `c1ccc2c(CC3=NCCN3)cccc2c1` [Naphazoline, naphazoline hydrochloride] here?
Its value is -3.48 ± 0.04.

With `COc1ccc2c(c1)[nH]c1c(C)nccc12` [Harmine, harmine hydrochloride] as the compound, how does the “S (slope)” value read?
The value was -4.28 ± 0.11.

same assay, conditions: pH 7.4; intercept, extrapolated to 100 % buffer; methanol/buffer, 25 °C

For `CCC1(C2=NCCN2)Cc2ccccc2O1` (centres unmarked) [Efaroxan, efaroxan hydrochloride], which log kw is on record?
Its log kw is 1.33± 0.03.

With `c1cc2c(c(NC3=NCCN3)c1)CCCC2` [Tramazoline, Tramazoline hydrochloride] as the compound, how does the log kw read?
The log kw was 1.51 ± 0.01.

Which log kw does the source give for `Cc1nccc2c1[nH]c1ccccc12` [Harman, harmane] here?
The log kw was 2.76 ± 0.05.

With `Brc1c(NC2=NCCN2)ccc2nccnc12` [Brimonidine, brimonidine hydrochloride] as the compound, how does the log kw read?
The log kw was 1.08 ± 0.03.

Which log kw does the source give for `c1ccc2c(CC3=NCCN3)cccc2c1` [Naphazoline, naphazoline hydrochloride] here?
The log kw was 1.52 ± 0.01.

With `COc1ccc2c(c1)[nH]c1c(C)nccc12` [Harmine, harmine hydrochloride] as the compound, how does the log kw read?
Its log kw is 2.88 ± 0.05.

same assay, conditions: pH 7.4; slope of log k vs methanol volume fraction

Which “S (slope)” value does the source give for `CCC1(C2=NCCN2)Cc2ccccc2O1` (centres unmarked) [Efaroxan, efaroxan hydrochloride] here?
Its value is -3.10 ± 0.14.

Which “S (slope)” value does the source give for `c1cc2c(c(NC3=NCCN3)c1)CCCC2` [Tramazoline, Tramazoline hydrochloride] here?
The value was -3.51 ± 0.06.

With `Cc1nccc2c1[nH]c1ccccc12` [Harman, harmane] as the compound, how does the “S (slope)” value read?
The value was -3.70 ± 0.09.

For `Brc1c(NC2=NCCN2)ccc2nccnc12` [Brimonidine, brimonidine hydrochloride], which “S (slope)” value is on record?
Its value is -3.20 ± 0.12.

With `c1ccc2c(CC3=NCCN3)cccc2c1` [Naphazoline, naphazoline hydrochloride] as the compound, how does the “S (slope)” value read?
The value was -3.64 ± 0.05.

For `COc1ccc2c(c1)[nH]c1c(C)nccc12` [Harmine, harmine hydrochloride], which “S (slope)” value is on record?
The value was -3.85 ± 0.09.

same assay, conditions: pH 9.1; intercept, extrapolated to 100 % buffer; methanol/buffer, 25 °C

With `CCC1(C2=NCCN2)Cc2ccccc2O1` (centres unmarked) [Efaroxan, efaroxan hydrochloride] as the compound, how does the log kw read?
The log kw was 1.85 ± 0.01.

For `c1cc2c(c(NC3=NCCN3)c1)CCCC2` [Tramazoline, Tramazoline hydrochloride], which log kw is on record?
Its log kw is 1.74 ± 0.01.

Which log kw does the source give for `Cc1nccc2c1[nH]c1ccccc12` [Harman, harmane] here?
The log kw was 2.78 ± 0.06.

Which log kw does the source give for `Brc1c(NC2=NCCN2)ccc2nccnc12` [Brimonidine, brimonidine hydrochloride] here?
The log kw was 1.26 ± 0.07.

For `c1ccc2c(CC3=NCCN3)cccc2c1` [Naphazoline, naphazoline hydrochloride], which log kw is on record?
The log kw was 1.76 ± 0.01.

Which log kw does the source give for `COc1ccc2c(c1)[nH]c1c(C)nccc12` [Harmine, harmine hydrochloride] here?
Its log kw is 2.95 ± 0.07.

same assay, conditions: pH 9.1; slope of log k vs methanol volume fraction

For `CCC1(C2=NCCN2)Cc2ccccc2O1` (centres unmarked) [Efaroxan, efaroxan hydrochloride], which “S (slope)” value is on record?
The value was -3.38 ± 0.03.

With `c1cc2c(c(NC3=NCCN3)c1)CCCC2` [Tramazoline, Tramazoline hydrochloride] as the compound, how does the “S (slope)” value read?
The value was -3.37 ± 0.03.

For `Cc1nccc2c1[nH]c1ccccc12` [Harman, harmane], which “S (slope)” value is on record?
Its value is -3.75 ± 0.11.

For `Brc1c(NC2=NCCN2)ccc2nccnc12` [Brimonidine, brimonidine hydrochloride], which “S (slope)” value is on record?
Its value is -3.23 ± 0.19.

Which “S (slope)” value does the source give for `c1ccc2c(CC3=NCCN3)cccc2c1` [Naphazoline, naphazoline hydrochloride] here?
The value was -3.50 ± 0.03.

Which “S (slope)” value does the source give for `COc1ccc2c(c1)[nH]c1c(C)nccc12` [Harmine, harmine hydrochloride] here?
Its value is -3.97 ± 0.12.

test: not given; settings: HPLC; ref 7 (Supplement reference list); cited from earlier work

For `CCC1(C2=NCCN2)Cc2ccccc2O1` (centres unmarked) [Efaroxan, efaroxan hydrochloride], which pKa experimental is on record?
Its pKa experimental is 10.02.

With `Cc1nccc2c1[nH]c1ccccc12` [Harman, harmane] as the compound, how does the pKa experimental read?
The pKa experimental was 7.21.

same assay, conditions: pH spectrophotometric; ref 13 (Supplement reference list); cited from earlier work

With `c1ccc2c(CC3=NCCN3)cccc2c1` [Naphazoline, naphazoline hydrochloride] as the compound, how does the pKa experimental read?
The pKa experimental was 10.81.

same assay, conditions: pH titration; ref 4 (Supplement reference list); cited from earlier work

Which pKa experimental does the source give for `c1cc2c(c(NC3=NCCN3)c1)CCCC2` [Tramazoline, Tramazoline hydrochloride] here?
The pKa experimental was 10.66 ± 0.05.

same assay, conditions: potentiometric; ref 2 (Supplement reference list); cited from earlier work

With `Brc1c(NC2=NCCN2)ccc2nccnc12` [Brimonidine, brimonidine hydrochloride] as the compound, how does the pKa experimental read?
The pKa experimental was 7.50.

same assay, conditions: spectrophotometric; ref 9 (Supplement reference list); cited from earlier work

With `COc1ccc2c(c1)[nH]c1c(C)nccc12` [Harmine, harmine hydrochloride] as the compound, how does the pKa experimental read?
Its pKa experimental is 7.45 (spectrophotometric) [9].
